Reference: PMC11448925, “Crystal structure of guanosine 5′-monophosphate synthetase from the thermophilic bacterium Thermus thermophilus HB8” (Acta Crystallographica Section F: Structural Biology …, 2024)

Columns and labels:
[1] = target: T1, TtGuaA (GMP synthetase, GuaA) (Thermus thermophilus, UniProt Q5SI28); assay: X-ray crystallography, […] Å; format: binding; details: co-crystal with 10 mM XMP, pH 4.4, 20 °C; site between ATPPase and dimerization domains
T1 construct: full length, 503 residues, no tag; pET-11a in E. coli Rosetta(DE3); selenomethionyl crystals for the XMP complex; homodimer
T1 sequence (Q5SI28 1-503): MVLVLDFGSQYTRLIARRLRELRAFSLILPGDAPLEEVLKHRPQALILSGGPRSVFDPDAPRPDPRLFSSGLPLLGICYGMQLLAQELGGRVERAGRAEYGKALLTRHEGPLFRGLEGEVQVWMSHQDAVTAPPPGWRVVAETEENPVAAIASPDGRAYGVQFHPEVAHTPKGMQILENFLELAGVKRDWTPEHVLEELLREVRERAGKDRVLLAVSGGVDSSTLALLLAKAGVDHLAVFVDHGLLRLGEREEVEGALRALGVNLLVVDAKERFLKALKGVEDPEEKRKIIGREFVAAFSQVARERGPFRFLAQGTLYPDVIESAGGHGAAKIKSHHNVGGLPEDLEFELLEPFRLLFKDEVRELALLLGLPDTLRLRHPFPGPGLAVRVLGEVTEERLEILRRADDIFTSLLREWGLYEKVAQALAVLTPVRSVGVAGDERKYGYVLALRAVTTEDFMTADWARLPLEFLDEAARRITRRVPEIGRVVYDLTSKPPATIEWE

[2] = target: the molecule itself; assay: SEC; size-exclusion chromatography of purified TtGuaA; conditions of the estimate not told

Molecule: O=c1[nH]c(=O)c2ncn([C@@H]3O[C@H](COP(=O)(O)O)[C@@H](O)[C@H]3O)c2[nH]1 [XMP]
- X-ray crystallography, 2.20 Å [1]: In TtGuaA–XMP, one XMP molecule was bound to each monomer.

B1: Guanosine 5′-monophosphate (GMP) synthetase (GuaA) from Thermus thermophilus HB8 (enzyme, Thermus thermophilus (strain HB8))
chain: MVLVLDFGSQYTRLIARRLRELRAFSLILPGDAPLEEVLKHRPQALILSGGPRSVFDPDAPRPDPRLFSSGLPLLGICYGMQLLAQELGGRVERAGRAEYGKALLTRHEGPLFRGLEGEVQVWMSHQDAVTAPPPGWRVVAETEENPVAAIASPDGRAYGVQFHPEVAHTPKGMQILENFLELAGVKRDWTPEHVLEELLREVRERAGKDRVLLAVSGGVDSSTLALLLAKAGVDHLAVFVDHGLLRLGEREEVEGALRALGVNLLVVDAKERFLKALKGVEDPEEKRKIIGREFVAAFSQVARERGPFRFLAQGTLYPDVIESAGGHGAAKIKSHHNVGGLPEDLEFELLEPFRLLFKDEVRELALLLGLPDTLRLRHPFPGPGLAVRVLGEVTEERLEILRRADDIFTSLLREWGLYEKVAQALAVLTPVRSVGVAGDERKYGYVLALRAVTTEDFMTADWARLPLEFLDEAARRITRRVPEIGRVVYDLTSKPPATIEWE
notes: GMP synthetase (GuaA), Thermus thermophilus HB8, gene TTHA1552; The apo structure (2ywb) was solved with native protein; the XMP complex (2ywc) was solved from selenomethionyl protein crystals; No tag is stated for the construct; also called TtGuaA; TTHA1552
- stoichiometry N [2]: 2
